Values of other authors, collected in patent publication US8703753B2, “Use of tellurium compounds for the treatment of actinic keratosis” (Biomas Ltd., priority 2005, dated 2014).
Where two headings read alike, the source gives them in different places.

Columns and labels:
interferon (IFN) [1] = details: mice
[2] = rats, intravenous and intramuscular administration
interferon (IFN) [3] = details: humans

## Cl[TeH]1(Cl)(Cl)OCCO1.N [AS101, ammonium trichloro(dioxyethylene-O,O′)tellurate]
IL-10
  effect on IL-10 at the m-RNA level: inhibit IL-10
Interferon (IFN) [1]
  activation of interferon (IFN): potent activator
[2]
  LD50 relative to the immunologically effective dose: 500-1000 folds
Interferon (IFN) [3]
  activation of interferon (IFN): potent activator
